# Experimental data: the supplement of paper PMC10307832
# Assays:
# Assay in all cases: relative viability (nuclei count vs DMSO), 5 days (fraction); higher = more cells survive
# [1] = compound: CC(C)CCN1c2nc(Nc3cc(F)c(O)c(F)c3)ncc2N(C)C(=O)C1C [BI-D1870] + Cc1cc(Nc2cc(N3CCN(C)CC3)nc(Sc3ccc(NC(=O)C4CC4)cc3)n2)n[nH]1 [Tozasertib] (partner 0.1 µM)
# How it was run: (§1)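 Lung cancer cell lines in 1536-well plates were dosed by pin tool the day after seeding, either with one drug alone or with a fixed anchor-drug dose plus five library-drug doses (not always all listed) in √10 steps. After 5 days, cells were fixed and their nuclei stained in one step (final 0.05% Triton X-100, 1% formaldehyde, 1 ug/ml Hoechst), then counted on 4× images. Relative viability is the nuclei count in treated wells divided by that in vehicle wells. Values are medians of duplicate plates.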
# [2] = compound: CC(C)CCN1c2nc(Nc3cc(F)c(O)c(F)c3)ncc2N(C)C(=O)C1C [BI-D1870] + CS(=O)(=O)N1CCN(Cc2cc3nc(-c4cccc5[nH]ncc45)nc(N4CCOCC4)c3s2)CC1 [Pictilisib] (partner 1 µM)
# How it was run: as §1
# [3] = compound: CC(C)CCN1c2nc(Nc3cc(F)c(O)c(F)c3)ncc2N(C)C(=O)C1C [BI-D1870] + C[C@]1(O)C[C@@H](c2nc(-c3ccc4ccc(-c5ccccc5)nc4c3)c3c(N)nccn32)C1 [Linsitinib] (partner 1 µM)
# How it was run: as §1
# [4] = compound: CC(C)CCN1c2nc(Nc3cc(F)c(O)c(F)c3)ncc2N(C)C(=O)C1C [BI-D1870] + COc1cccc2cc(-c3nc([C@H]4CC[C@H](C(=O)O)CC4)n4ncnc(N)c34)[nH]c12 [OSI-027] (partner 0.5 µM)
# How it was run: as §1
Cell Line,relative viability ([1]; first compound 0.04 µM),relative viability ([1]; first compound 0.1265 µM),relative viability ([1]; first compound 0.4 µM),relative viability ([1]; first compound 1.265 µM),relative viability ([1]; first compound 4 µM),relative viability ([2]; first compound 0.04 µM),relative viability ([2]; first compound 0.1265 µM),relative viability ([2]; first compound 0.4 µM),relative viability ([2]; first compound 1.265 µM),relative viability ([2]; first compound 4 µM),relative viability ([3]; first compound 0.04 µM),relative viability ([3]; first compound 0.1265 µM),relative viability ([3]; first compound 0.4 µM),relative viability ([3]; first compound 1.265 µM),relative viability ([3]; first compound 4 µM),relative viability ([4]; first compound 0.04 µM),relative viability ([4]; first compound 0.1265 µM),relative viability ([4]; first compound 0.4 µM),relative viability ([4]; first compound 1.265 µM),relative viability ([4]; first compound 4 µM)
LU99A,0.274,0.253,0.273,0.316,0.25,0.368,0.253,0.319,0.305,0.358,0.617,0.435,0.519,0.48,0.496,0.295,0.265,0.288,0.308,0.287
LXF-289,0.173,0.211,0.191,0.183,0.195,0.833,0.763,0.798,0.745,0.665,1.05,0.91,0.943,0.947,0.916,0.796,0.74,0.746,0.807,0.776
NCI-H23,0.433,0.26,0.267,0.314,0.214,0.625,0.445,0.433,0.421,0.26,0.911,0.385,0.586,0.61,0.685,0.782,0.525,0.463,0.547,0.344
NCI-H322M,0.494,0.508,0.456,0.495,0.41,0.579,0.526,0.411,0.526,0.475,1.05,0.904,0.826,0.879,0.883,0.579,0.511,0.38,0.444,0.494
NCI-H358,0.124,0.0956,0.118,0.127,0.113,0.38,0.233,0.338,0.365,0.322,0.694,0.705,0.812,0.625,0.381,0.825,0.65,0.687,0.728,0.344
NCI-H441,0.56,0.531,0.59,0.504,0.407,0.498,0.374,0.518,0.466,0.492,0.871,0.429,0.481,0.493,0.518,0.577,0.557,0.601,0.637,0.496
NCI-H460,0.467,0.0966,0.104,0.0609,0.0499,0.437,0.364,0.31,0.391,0.33,0.974,0.629,0.655,0.434,0.0477,0.825,0.504,0.43,0.442,0.185
NCI-H520,0.508,0.441,0.44,0.358,0.36,0.317,0.275,0.348,0.36,0.233,1,0.846,0.985,0.803,0.678,0.226,0.205,0.252,0.291,0.2
NCI-H596,0.953,0.82,0.901,0.81,0.905,0.388,0.402,0.385,0.428,0.393,1.13,1.07,1.05,1.17,1.07,0.797,0.704,0.95,0.572,0.5
NCI-H647,0.399,0.251,0.442,0.385,0.138,0.497,0.387,0.444,0.512,0.34,1.14,1.2,1.26,1.22,0.871,0.657,0.519,0.664,0.855,0.53
NCI-H650,0.752,0.677,0.689,0.588,0.265,0.9,0.745,0.87,0.811,0.651,1.12,0.733,0.905,0.704,0.855,0.538,0.427,0.509,0.471,0.446
NCI-H661,0.355,0.337,0.336,0.354,0.381,0.377,0.44,0.36,0.505,0.313,0.515,0.485,0.489,0.535,0.593,0.765,0.622,0.652,0.706,0.467
NCI-H727,0.683,0.699,0.561,0.773,0.557,0.425,0.35,0.354,0.509,0.366,0.323,0.328,0.252,0.371,0.261,0.559,0.518,0.646,1.01,0.517
NCI-H838,0.283,0.265,0.243,0.251,0.22,0.442,0.421,0.529,0.498,0.574,1.13,0.962,0.998,1.13,0.957,0.378,0.352,0.349,0.47,0.462
NCI-H1355,0.598,0.528,0.498,0.374,0.384,0.433,0.365,0.398,0.504,0.323,0.842,0.81,0.788,0.788,0.75,0.464,0.36,0.361,0.425,0.308
NCI-H1395,0.818,0.685,0.718,0.72,0.721,0.684,0.588,0.587,0.673,0.507,1.11,0.922,1.14,1.2,0.85,0.717,0.639,0.658,0.616,0.593
